Source: paper PMC3598812, “Evaluation of Anti-Hyperalgesic and Analgesic Effects of Two Benzodiazepines in Human Experimental Pain: A Randomized Placebo-Controlled Study” (PLoS ONE, 2013)

Key:
healthy male volunteers [1] = assay: Cutaneous repeated (20 stimuli) electrical stimulation, VAS; type: in vivo, human; design: AUC of VAS during 20 cutaneous electrical stimuli: unit not given beside the values; conditions: mean (SD); for Maximal VAS during 20 cutaneous electrical stimuli: VAS 0-10
Description: (§1) The stimulus burst used for single stimulus was repeated for a train of 20 pulses at 2 Hz, at an intensity corresponding to the temporal summation threshold. During this 10 s stimulation, pain intensity was continuously rated by the subject with an electronic VAS, and the area under the curve (AUC) was computed. Additionally, the maximal VAS during stimulation was recorded.

healthy male volunteers [2] = assay: Pain rating (VAS) after graded von Frey hair stimulation in the capsaicin hyperalgesic area; type: in vivo, human
Description: Additionally, mechanical pain sensitivity was assessed using a set of seven weighted pinprick stimuli to obtain a stimulus-response function. The test was applied 1 cm inside the outer border of the pinprick hyperalgesic area, using a set of 7 graded von Frey hair mechanical stimulators with fixed stimulus intensities (custom-made at Aalborg University, Denmark). The flat contact area of the stimulators has a 0.2 mm diameter, and the 7 stimulators exert forces of 8, 16, 32, 64, 128, 256 and 512 mN. The order of stimulation was defined randomly by computer. The stimulators were applied at a rate of 2 s on/2 s off. Subjects were asked to give a pain rating for each stimulus on a 10 cm VAS. Two assessments for each stimulation were made and the mean of these 2 measurements was used for the data analysis.

healthy male volunteers [3] = assay: Intramuscular repeated (20 stimuli) electrical stimulation, VAS; type: in vivo, human; design: AUC of VAS during 20 intramuscular electrical stimuli: unit not given beside the values; conditions: mean (SD); for Maximal VAS during 20 intramuscular electrical stimuli: VAS 0-10
Description: as §1
A needle was placed in the tibialis anterior muscle, 14 cm distal from the caudal end of the patella and 20 mm in depth. The same single and repeated stimulation patterns and the same procedure described for cutaneous stimulation were used.

patients / volunteers = conditions: cited from earlier work
healthy male volunteers [4] = assay: Pressure pain detection and tolerance thresholds (pressure algometer, 2nd toe); type: in vivo, human; conditions: mean (SD)
Description: Pain detection and tolerance thresholds were measured with an electronic pressure algometer (Somedic, Hörby, Sweden) applied at the center of the pulp of the 2nd toe. […] The pressure was increased from 0 at a rate of 30 kPa/s to a maximum pressure of 1200 kPa. Pain detection threshold was defined as the point at which the pressure sensation turned to pain. Pain tolerance threshold was defined as the point at which the subject felt the pain as intolerable. If the threshold was not reached at 1200 kPa, this value was considered as threshold. Three assessments were made and the mean of these 3 measurements were used for the data analysis.

[5] = baseline before medication, per drug session
[6] = single oral dose (clobazam 20 mg, clonazepam 1 mg, tolterodine 1 mg), 30 min after medication
[7] = single oral dose (clobazam 20 mg, clonazepam 1 mg, tolterodine 1 mg), 60 min after medication
[8] = single oral dose (clobazam 20 mg, clonazepam 1 mg, tolterodine 1 mg), 90 min after medication
[9] = single oral dose (clobazam 20 mg, clonazepam 1 mg, tolterodine 1 mg), 120 min after medication
[10] = single oral dose (clobazam 20 mg, clonazepam 1 mg, tolterodine 1 mg), after flumazenil 0.2 mg iv
[11] = VAS 0-10, single oral dose (clobazam 20 mg, clonazepam 1 mg, tolterodine 1 mg), 30 min after medication, mean (SD)
[12] = VAS 0-10, single oral dose (clobazam 20 mg, clonazepam 1 mg, tolterodine 1 mg), 60 min after medication, mean (SD)
[13] = VAS 0-10, single oral dose (clobazam 20 mg, clonazepam 1 mg, tolterodine 1 mg), 90 min after medication, mean (SD)
[14] = VAS 0-10, single oral dose (clobazam 20 mg, clonazepam 1 mg, tolterodine 1 mg), 120 min after medication, mean (SD)
[15] = VAS 0-10, single oral dose (clobazam 20 mg, clonazepam 1 mg, tolterodine 1 mg), after flumazenil 0.2 mg iv, mean (SD)
[16] = placebo-controlled, double-blind trial, 114 outpatients with anxiety, mean doses 59 mg clobazam daily, 25 mg diazepam daily, ref Micromedex 2009

## CN1C(=O)CC(=O)N(c2ccccc2)c2cc(Cl)ccc21 [Clobazam]
Healthy male volunteers [1]; [5]
  Maximal VAS during 20 cutaneous electrical stimuli: 4.7 (1.8)
  AUC of VAS during 20 cutaneous electrical stimuli: 332 (142)
Healthy male volunteers [1]; [6]
  Maximal VAS during 20 cutaneous electrical stimuli: 4.9 (2.2)
  AUC of VAS during 20 cutaneous electrical stimuli: 338 (152)
Healthy male volunteers [1]; [7]
  Maximal VAS during 20 cutaneous electrical stimuli: 4.7 (1.9)
  AUC of VAS during 20 cutaneous electrical stimuli: 341 (167)
Healthy male volunteers [1]; [8]
  Maximal VAS during 20 cutaneous electrical stimuli: 4.3 (2.0)
  AUC of VAS during 20 cutaneous electrical stimuli: 328 (169)
Healthy male volunteers [1]; [9]
  Maximal VAS during 20 cutaneous electrical stimuli: 4.2 (1.8)
  AUC of VAS during 20 cutaneous electrical stimuli: 314 (146)
Healthy male volunteers [1]; [10]
  Maximal VAS during 20 cutaneous electrical stimuli: 4.5 (1.7)
  AUC of VAS during 20 cutaneous electrical stimuli: 339 (150)
Healthy male volunteers [2]; [11]
  VAS after von Frey hair 8 mN: 1.1 (1.2)
  VAS after von Frey hair 16 mN: 2.0 (2.1)
  VAS after von Frey hair 32 mN: 2.0 (1.6)
  VAS after von Frey hair 64 mN: 2.3 (2.0)
  VAS after von Frey hair 128 mN: 2.9 (2.0)
  VAS after von Frey hair 256 mN: 3.3(2.3)
  VAS after von Frey hair 512 mN: 4.5 (2.5)
Healthy male volunteers [2]; [12]
  VAS after von Frey hair 8 mN: 1.9 (3.3)
  VAS after von Frey hair 16 mN: 2.3 (3.2)
  VAS after von Frey hair 32 mN: 2.4 (2.8)
  VAS after von Frey hair 64 mN: 2.5 (2.0)
  VAS after von Frey hair 128 mN: 3.4 (2.7)
  VAS after von Frey hair 256 mN: 3.7 (2.6)
  VAS after von Frey hair 512 mN: 4.8 (2.8)
Healthy male volunteers [2]; [13]
  VAS after von Frey hair 8 mN: 1.2 (1.4)
  VAS after von Frey hair 16 mN: 1.4 (1.6)
  VAS after von Frey hair 32 mN: 2.1 (2.2)
  VAS after von Frey hair 64 mN: 2.1 (1.9)
  VAS after von Frey hair 128 mN: 3.5 (2.3)
  VAS after von Frey hair 256 mN: 3.9 (2.5)
  VAS after von Frey hair 512 mN: 4.9 (2.6)
Healthy male volunteers [2]; [14]
  VAS after von Frey hair 8 mN: 1.3 (1.4)
  VAS after von Frey hair 16 mN: 1.3 (1.5)
  VAS after von Frey hair 32 mN: 1.9 (1.9)
  VAS after von Frey hair 64 mN: 2.7 (2.7)
  VAS after von Frey hair 128 mN: 3.0 (2.6)
  VAS after von Frey hair 256 mN: 3.8 (2.6)
  VAS after von Frey hair 512 mN: 4.7 (2.7)
Healthy male volunteers [2]; [15]
  VAS after von Frey hair 8 mN: 1.1 (1.1)
  VAS after von Frey hair 16 mN: 1.3 (1.1)
  VAS after von Frey hair 32 mN: 1.9 (1.9)
  VAS after von Frey hair 64 mN: 2.2 (1.7)
  VAS after von Frey hair 128 mN: 2.9 (2.1)
  VAS after von Frey hair 256 mN: 3.9 (2.2)
  VAS after von Frey hair 512 mN: 5.1 (2.5)
Healthy male volunteers [2]; subgroup analysis (n = 8), 30 minutes, mean
  VAS after von Frey hair 512 mN: 3.2
Healthy male volunteers [2]; subgroup analysis (n = 8), 120 minutes, mean
  VAS after von Frey hair 512 mN: 5.1
Healthy male volunteers [3]; [5]
  Maximal VAS during 20 intramuscular electrical stimuli: 4.2 (1.5)
  AUC of VAS during 20 intramuscular electrical stimuli: 284 (149)
Healthy male volunteers [3]; [9]
  Maximal VAS during 20 intramuscular electrical stimuli: 4.5 (2.5)
  AUC of VAS during 20 intramuscular electrical stimuli: 309 (188)
Healthy male volunteers [3]; [10]
  Maximal VAS during 20 intramuscular electrical stimuli: 4.0 (1.9)
  AUC of VAS during 20 intramuscular electrical stimuli: 292 (169)
Patients / volunteers; 20 mg clobazam, unlike 2 mg clonazepam
  Effect on cognitive and psychomotor functions: did not affect significantly
Patients / volunteers; 20 mg of clobazam
  Sedation compared with 1 mg of clonazepam: less sedative
Patients / volunteers; [16]
  Dizziness, share of treated patients: 2%
  Sedation, share of treated patients: 38%
Healthy male volunteers [4]; [5]
  Pressure pain detection threshold: 432 (123) kPa
Healthy male volunteers [4]; [9]
  Pressure pain detection threshold: 379 (130) kPa
Healthy male volunteers [4]; [10]
  Pressure pain detection threshold: 393 (118) kPa
